Experimental data taken from article PMC4980843 (European journal of medicinal chemistry, 2009).
Read-outs that look alike come from different tables or passages of the source.

Key:
human PDE3A isozyme = human PDE3A isozyme (Homo sapiens, UniProt Q14432); assay: IMAP fluorescence polarization phosphodiesterase assay; type: biochemical; details: for % PDE3 Inhibition at 50 μM, cGMP: cGMP as substrate
[1] = system: human HT-29 colon tumor cell line; assay: Tumor cell growth inhibition, Cell Titer Glo assay, 72 h; type: cell-based; details: HT-29 cells

Chain of human PDE3A isozyme (Q14432 whole entry): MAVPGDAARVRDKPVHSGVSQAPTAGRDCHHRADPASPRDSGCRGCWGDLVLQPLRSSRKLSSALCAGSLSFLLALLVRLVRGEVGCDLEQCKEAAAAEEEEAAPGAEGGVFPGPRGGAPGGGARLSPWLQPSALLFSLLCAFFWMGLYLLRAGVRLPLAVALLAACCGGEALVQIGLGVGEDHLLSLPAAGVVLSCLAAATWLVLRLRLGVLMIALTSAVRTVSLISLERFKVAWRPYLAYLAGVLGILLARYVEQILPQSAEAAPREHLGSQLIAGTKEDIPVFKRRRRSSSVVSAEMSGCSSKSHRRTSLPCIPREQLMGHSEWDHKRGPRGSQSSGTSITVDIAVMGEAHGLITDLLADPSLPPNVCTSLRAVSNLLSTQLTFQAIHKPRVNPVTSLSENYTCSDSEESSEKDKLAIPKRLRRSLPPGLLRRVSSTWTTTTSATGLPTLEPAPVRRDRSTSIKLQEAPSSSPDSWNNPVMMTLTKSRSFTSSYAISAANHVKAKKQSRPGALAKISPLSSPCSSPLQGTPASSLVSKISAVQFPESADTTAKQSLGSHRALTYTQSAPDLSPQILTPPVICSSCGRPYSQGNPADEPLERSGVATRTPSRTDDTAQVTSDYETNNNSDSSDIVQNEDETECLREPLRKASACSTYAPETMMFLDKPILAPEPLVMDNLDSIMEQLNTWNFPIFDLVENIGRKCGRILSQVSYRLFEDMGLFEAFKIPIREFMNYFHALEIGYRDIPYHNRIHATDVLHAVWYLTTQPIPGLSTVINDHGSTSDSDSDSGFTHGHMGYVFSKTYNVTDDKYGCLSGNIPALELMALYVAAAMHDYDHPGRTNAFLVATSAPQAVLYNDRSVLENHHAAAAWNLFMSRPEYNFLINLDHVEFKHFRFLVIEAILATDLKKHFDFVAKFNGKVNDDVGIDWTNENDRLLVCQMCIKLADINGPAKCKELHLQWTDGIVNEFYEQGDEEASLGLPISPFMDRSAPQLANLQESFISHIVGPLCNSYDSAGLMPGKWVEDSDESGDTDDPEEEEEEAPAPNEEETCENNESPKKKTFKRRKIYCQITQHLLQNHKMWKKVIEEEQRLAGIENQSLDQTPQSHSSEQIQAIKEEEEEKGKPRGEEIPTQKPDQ

Molecule	tumor cell growth inhibitory activity (in words) [1]	also measured
2-Imino-4-phenyl-6-(thiophen-3-yl)-1,2-dihydropyridine-3-carbonitrile [Compound 25]	–	% PDE3 Inhibition at 50 μM, cAMP (human PDE3A isozyme; 50 μM, cAMP as substrate): 21%; % PDE3 Inhibition at 50 μM, cGMP (human PDE3A isozyme; 50 μM): 26%
CCOc1ccccc1-c1cc(-c2ccsc2)[nH]c(=O)c1C#N [Compound 21, 4-(2-Ethoxyphenyl)-2-oxo-6-thiophen-3-yl-1,2-dihydropyridine-3 carbonitrile]	displayed tumor cell growth inhibitory activity	–
N#Cc1c(-c2ccccc2O)cc(-c2ccsc2)[nH]c1=O [Compound 19, 4-(2-Hydroxyphenyl)-2-oxo-6-thiophen-3-yl-1,2-dihydropyridine-3-carbonitrile]	displayed tumor cell growth inhibitory activity	–
CCOc1ccc(-c2cc(-c3ccsc3)[nH]c(=N)c2C#N)cc1 [Compound 26, 4-(4-Ethoxyphenyl)-2-imino-6-(thiophen-3-yl)-1,2-dihydropyridine-3-carbonitrile]	no tumor cell growth inhibitory activity	% PDE3 Inhibition at 50 μM, cGMP (human PDE3A isozyme; 50 μM): > 50%; inhibition at 50 µM (human PDE3A isozyme; read-out: % PDE3 Inhibition at 50 μM, cAMP, 50 μM, cAMP as substrate): > 50%
N#Cc1c(-c2cccc(Cl)c2)cc(-c2ccccc2)[nH]c1=O [Compound 15, 4-(3-Chlorophenyl)-2-oxo-6-phenyl-1,2-dihydropyridine-3-carbonitrile]	displayed tumor cell growth inhibitory activity	–
N#Cc1c(-c2ccccc2O)cc(-c2ccc(Br)cc2)[nH]c1=O [Compound 1, 6-(4-Bromophenyl)-4-(2-hydroxyphenyl)-2-oxo-1,2-dihydropyridine-3-carbonitrile]	displayed tumor cell growth inhibitory activity	–
COc1ccc(OC)c(-c2cc(-c3ccc(Br)cc3)[nH]c(=N)c2C#N)c1 [Compound 9, 6-(4-Bromophenyl)-4-(2,5-dimethoxyphenyl)-2-imino1,2-dihydropyridine3-carbonitrile]	displayed tumor cell growth inhibitory activity	–
COc1ccc(-c2cc(-c3ccsc3)[nH]c(=N)c2C#N)cc1 [Compound 28, 2-Imino-4-(4-methoxyphenyl)-6-(thiophen-3-yl)-1,2-dihydropyridine-3-carbonitrile]	displayed tumor cell growth inhibitory activity	–
CCOc1ccccc1-c1cc(-c2ccsc2)[nH]c(=N)c1C#N [Compound 27, 4-(2-Ethoxyphenyl)-2-imino-6-(thiophen-3-yl)-1,2-dihydropyridine-3-carbonitrile]	displayed tumor cell growth inhibitory activity	–
COc1ccccc1-c1cc(-c2ccsc2)[nH]c(=N)c1C#N [Compound 29, 2-Imino-4-(2-methoxyphenyl)-6-(thiophen-3-yl)-1,2-dihydropyridine-3-carbonitrile]	displayed tumor cell growth inhibitory activity	inhibition at 50 µM (human PDE3A isozyme; read-out: % PDE3 Inhibition at 50 μM, cGMP, 50 μM, cGMP as substrate): -95%
